Results: patent publication US11718582B2, “(R)-4-(1-(1-(4-(trifluoromethyl)benzyl)pyrrolidine-2-carboxamide)cyclopropyl)-benzoic acid as EP4 receptor antagonist” (ROTTAPHARM BIOTECH S.R.L., priority 2018, dated 2023)
Counter-ions that a name gives are not always drawn. Like-named read-outs stand apart in the source and are kept apart here.

What was measured:
human EP4 receptor [1] = molecular target: T1, human EP4 receptor (Homo sapiens, UniProt P35408); test: [3H]-PGE2 binding to recombinant human EP4 receptor (HEK293 membranes); parameters: expressed in transfected cells; details: for IC50: recombinant human EP4 receptor, HEK293 membranes, radioligand 1 nM, 90 min 25° C., read-out: [3H]-PGE2 binding IC50 (nM ± SD)
T1 sequence (P35408 whole entry): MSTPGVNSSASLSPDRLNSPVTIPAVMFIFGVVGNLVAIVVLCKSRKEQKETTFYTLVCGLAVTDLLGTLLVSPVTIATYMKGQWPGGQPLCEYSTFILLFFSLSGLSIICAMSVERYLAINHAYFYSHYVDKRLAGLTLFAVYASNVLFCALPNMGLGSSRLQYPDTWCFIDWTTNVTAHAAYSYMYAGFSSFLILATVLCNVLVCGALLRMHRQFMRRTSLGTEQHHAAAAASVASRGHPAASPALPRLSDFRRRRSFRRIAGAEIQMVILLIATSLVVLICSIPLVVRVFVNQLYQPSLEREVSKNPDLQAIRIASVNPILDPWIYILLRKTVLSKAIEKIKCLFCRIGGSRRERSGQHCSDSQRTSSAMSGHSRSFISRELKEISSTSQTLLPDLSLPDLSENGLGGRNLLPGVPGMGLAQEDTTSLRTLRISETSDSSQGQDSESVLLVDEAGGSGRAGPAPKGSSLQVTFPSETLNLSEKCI
Method: Studies of Binding Towards the Human EP4 Receptor.
The experiments were performed in accordance with the procedure described by Abramovitz et al (Biochemica and Biophysica Acta; 1483, 285-293, 2000).
The cell membranes bearing the human EP4 receptor, stably expressed by HEK293 cells (Human Embryonic Kidney 293) were prepared as described below. After eliminating the culture medium (DMEM, supplemented with Glutamax I and containing 10% of foetal bovine serum and blasticidin 10 μg/ml) a wash of the cell monolayer was performed with 10 ml of hypotonic lysis buffer (TRIS-CI 5 mM+EDTA 5 mM-pH 7.4). The cells, which grew in adherence in the above mentioned medium at 37° C. with 5% CO2, were then detached from the growth container (150 cm^2 flask) and lysed by mechanical action, adding 20 ml of fresh lysis buffer. The lysates were stirred for 30 seconds and centrifuged at 40000×g for 22 minutes at 4° C. The final pellet was stored at −80° C. until use. At the time of the binding experiment, the membranes were thawed and re-suspended in analysis buffer (10 mM MES-KOH pH6, containing 10 mM MgCl2 and 1 mM CaCl2)) to obtain a concentration of 1 mg of proteins/ml. The protein content of the membrane suspension was determined using bovine serum albumin as a standard.
In the experiments, 10 μl aliquots of membranes were incubated with the radioligand [^3H]-Prostaglandin E2 (PGE2) at the concentration of 1 nM, in absence or in presence of various concentrations of the compounds to be tested. The non-specific binding was determined in the presence of PGE2 1 μM. The incubation, in a final volume of 0.1 ml, performed in 96 deepwell microplates, proceeded for 90 minutes at 25° C. The separation of the free radioligand from that bound to the receptor occurred by rapid filtration under vacuum, using Unifilter GFB glass fibre filtering microplates, pre-wetted with 0.3% of polyethylene-imine dissolved in the analysis buffer, followed by 3 washes with cold buffer (50 mM HEPES, NaCl 500 mM, BSA 0.1%, pH 7.4). The filtration discs were then dried at 30° C., to which 0.05 ml of Microscint-20 scintillation liquid (Perkin Elmer) was added to each and at the end the radioactivity present was measured after at least one hour of stabilization. The compound/radioligand competition curves were analysed using the “Non linear curve fitting” program (Graph Pad, version 7 for Windows), which allowed calculating the IC50 value (concentration capable of inhibiting the 50% of the radioligand binding to the receptor under examination) for each compound evaluated.

EP4 receptor = molecular target: T2, EP4 receptor (Rattus norvegicus, UniProt P43114); test: Ex-vivo functional test: reversion of PGE2 effect on LPS-induced TNF alpha release in rat whole blood (EP4 receptor occupation); details: 30 mg/kg oral; for Effect per se on the release of TNF alpha (in absence of PGE2): LPS only; for Reversion of the effect of PGE2 on LPS-induced TNF alpha release: blood sampled 1 hour after treatment, **p<0.01 vs vehicle
T2 construct: by the cells present in the whole blood of the rat and expressing the EP4 receptor; from tissue; host or cells: whole blood of male Wistar rats dosed orally, ex vivo
T2 sequence (P43114 whole entry): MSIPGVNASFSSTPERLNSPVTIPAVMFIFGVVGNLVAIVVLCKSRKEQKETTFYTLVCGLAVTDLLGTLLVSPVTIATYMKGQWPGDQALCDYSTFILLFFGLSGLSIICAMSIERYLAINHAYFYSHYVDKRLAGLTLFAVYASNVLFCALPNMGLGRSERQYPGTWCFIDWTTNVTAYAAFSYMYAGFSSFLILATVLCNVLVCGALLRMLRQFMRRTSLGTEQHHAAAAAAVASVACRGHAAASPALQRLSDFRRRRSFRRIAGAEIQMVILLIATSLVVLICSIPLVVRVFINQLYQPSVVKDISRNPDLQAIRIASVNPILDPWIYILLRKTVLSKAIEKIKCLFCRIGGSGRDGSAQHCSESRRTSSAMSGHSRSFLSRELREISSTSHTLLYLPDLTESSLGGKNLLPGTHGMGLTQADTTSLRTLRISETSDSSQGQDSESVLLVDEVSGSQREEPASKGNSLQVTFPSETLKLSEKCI
Method: Ex-Vivo Functional Test: Evaluation in the Rat of EP4 Receptor Occupation by Compound 1 (30 mg/kg) Compared to CR6086 (30 mg/kg)
Method: The release of the cytokine TNF alpha induced by the endotoxin Lipopolysaccharide (from E. coli) and modulated by increasing concentrations of PGE2 was evaluated, by the cells present in the whole blood of the rat and expressing the EP4 receptor. As it is known from the literature, PGE2 modulates this release by inhibiting it, and the compounds tested, selective for the EP4 receptor, if present in the blood following their uptake, will be bound to the receptor, preventing PGE2 from inhibiting cytokine release. This reversal effect of the modulation of TNF alpha release can be considered a biomarker of the antagonism towards the EP4 receptor.
Male Wistar rats (Charles River, Italy) weighing 250-275 g were used, orally treated with a vehicle or Compound 1 (30 mg/kg) or CR6086 (30 mg/kg). Each treatment group consisted of 6 animals.
Measurement of the Ex-Vivo Effects in Whole Blood of the Rat:
The effects of the receptor occupancy by the compounds under examination was evaluated one hour after their administration, and compared to those measured in the presence of the vehicle alone. After gaseous anaesthesia with isofluorane, blood was taken from the abdominal aorta and transferred to tubes containing heparin (0.1-0.2 U/ml). Then 0.4 ml blood aliquots were taken and dispensed into a series of test tubes which were pre-heated at 37° C. for 10 minutes. LPS (0.1 μg/ml final concentration) were added to the samples, which represented the test control, or an LPS mix (0.1 μg/ml final concentration)+PGE2 at various concentrations. In the samples representing the basal release of cytokine, LPS was replaced by sterile phosphate buffer (PBS). The samples were incubated for 4 hours at 37° C., then 40 μl of 10 mM EDTA were added and the samples were transferred into ice. The samples were then centrifuged at 1500×g for 10 minutes at 4° C. and the plasma thus obtained was removed and stored at −80° C. until the time of the dosing. The content of TNF alpha in the plasma was measured by means of a specific commercial kit.
The final concentrations of TNF alpha were calculated for each animal treated and for each experimental condition, from which the percentage of inhibition due to increasing concentrations of PGE2 were obtained, compared to the sample containing only LPS. The cytokine release baseline values resulted to be below the ELISA assay sensitivity limit, indicated by the manufacturer. Therefore, the IC50 value was calculated from this inhibition curve. […] The mean TNF alpha values of the samples in presence of only LPS, in the different treatment groups were analysed to verify the possible intrinsic effect of the compound under examination. […]

human EP4 receptor [2] = molecular target: T1, human EP4 receptor; test: Determination of cAMP in CHO cells transfected with human EP4 receptor (functional test); format: cell-based; parameters: expressed in transfected cells; host or cells: CHO cells; details: for Agonist effect (inactive up to): cAMP production in absence of PGE2, vs 1 μM PGE2 control; for Kb: cAMP, CHO-hEP4, 30 nM PGE2, modified Cheng Prusoff; for IC50: inhibition of cAMP response to 30 nM PGE2, read-out: Antagonist effect: IC50
Method: Determination of cAMP in CHO Cells Transfected with Human EP4 Receptor (Functional Test)
Method: Evaluation of the agonist and antagonist activity of Compound 1 in the human EP4 receptor expressed in CHO cells transfected with the human EP4 receptor, determined by measuring its effects on cAMP production in the absence and in the presence of the endogenous agonist PGE2.
The CHO cells were suspended in HBSS buffer (Invitrogen) with the addition of HEPES 20 mM (pH 7.4) and IBMX […], then distributed in microplates at a density of 20000 cells per well and incubated for 10 minutes at room temperature in the absence (control) or in presence of the compound under examination. As a reference control of the agonist activity, 1 μM of PGE2 was added to independent dosage wells. In the case of the evaluation of the antagonistic effect, the reference agonist PGE2 was instead added to a final concentration of 30 nM. After 10 minutes of incubation at room temperature, the cells were lysed and the fluorescence acceptor (cAMP labelled D2) and the fluorescence donor (anti-cAMP antibody labelled with europium cryptate) were added. After 60 minutes at room temperature, the fluorescence transfer was measured at a wavelength of 337 nm in excitation and at 620 and 665 nm in emission using a microplate reader (Envison, Perkin Elmer). The cAMP concentration was determined by dividing the measured signal at 665 nm by that measured at 620 nm (ratio). The results were expressed, in the case of the evaluation of the agonist effect, as a percentage of the control response at 1 μM of PGE2 while, in the case of the evaluation of the antagonist effect, as a percentage of inhibition of the response of the control agonist at 30 nM PGE2. For the determination of the antagonist activity, the apparent dissociation constant (Kb) was calculated by applying the modified Cheng Prusoff equation (Kb=IC50/(1+A/EC50A)); where A=concentration of the reference agonist PGE2, and EC50A=EC50 value of the reference agonist.

[3] = system: collagen-induced arthritis in mice; test: Collagen arthritis in the mouse (CIA); format: in vivo
[4] = Pharmacokinetics in Wistar rats; format: in vivo; details: for Cmax: rat, plasma, oral
[5] = read-out: Antagonist effect: Kb
[6] = read-out: Kb (apparent dissociation constant), antagonist

Row | Compound | IC50 (human EP4 receptor [1]) [nM] | Effect per se on the release of TNF alpha (in absence of PGE2) (EP4 receptor) | Reversion of the effect of PGE2 on LPS-induced TNF alpha release (EP4 receptor) | Agonist effect (inactive up to) (human EP4 receptor [2]) | Kb (human EP4 receptor [2]; [5]) [nM] | Kb (human EP4 receptor [2]; [6]) [nM] | IC50 (human EP4 receptor [2]) [nM] | Progression of collagen-induced arthritis (oedema, clinical and histopathological score) ([3]; 45 and 90 mg/kg oral, 16 days, DBA/1 mice) | Reversion of clinical symptoms (swelling of paws) compared with CR6086 30 mg/kg ([3]; compound 1 at 45 mg/kg vs CR6086 30 mg/kg in a similar study) | Oral bioavailability [4] | AUC (0-24 h) ([4]; 5 mg/kg) [ngxh/ml] | Cmax ([4]; 5 mg/kg, converted from 4270 ng/ml, read-out: CMAX as plasma concentration) [µM] | Cmax ([4]; 5 mg/kg, read-out: CMAX) [ng/mL] | times less active than Compound 1 in inhibiting the binding of the PGE2 ligand to the human EP4 receptor (human EP4 receptor [1]; relative to Compound 1)
1 | O=C(O)c1ccc(C2(NC(=O)[C@H]3CC4(CCN3Cc3ccc(C(F)(F)F)cc3)CC4)CC2)cc1 [CR6086, 4-(1-(6-(4-(trifluoromethyl)benzyl)-6-azaspiro [2.5]octan-5-carboxamide)cyclopropyl) benzoic acid, reference compound] | 48 ± 3 | no significant effects per se | statistically significant reversion of the effect of PGE2 | > 10^−6 M | 7.8 | 7.8 | 82 | – | – | – | – | – | – | –
2 | O=C(O)c1ccc(C2(NC(=O)[C@H]3CCCN3Cc3ccc(C(F)(F)F)cc3)CC2)cc1 [Compound 1] | 45 ± 0.4 | no significant effects per se | statistically significant reversion of the effect of PGE2 | > 10^−6 M | 15 | 15 | 160 | significantly and in a dose-dependent manner reduced the evolution of the pathology | greater effect on the reversion of clinical symptoms | excellent oral bioavailability | 5460 | ~9 | 4270 | –
3 | O=C(O)c1ccc(C2(NC(=O)[C@@H]3CCCN3Cc3ccc(C(F)(F)F)cc3)CC2)cc1 [Compound 2, sodium salt of (S)-4-(1-(1-(4-(trifluoromethyl)benzyl)pyrrolidin-2-carboxamide)cyclopropyl) benzoic acid] | 2210 ± 940 | – | – | – | – | – | – | – | – | – | – | – | – | about 50 times
